The values that follow come from ChEMBL document CHEMBL3632568, “Synthesis and biological evaluation of polyalthic acid derivatives for the treatment of neglected diseases” (Bioorg Med Chem Lett, 2015).

Values after ≈ are worked out from the molar mass of the structure shown. Active and inactive are the calls of the source. No cut-off for these calls is given here.

What all share (format): functional, organism-based
For assay [1], the system named is Leishmania donovani. Description: Antileishmanial activity against promastigote stage of Leishmania donovani assessed as growth inhibition at 0.0128 to 40 ug/ml after 72 hrs by Alamar Blue assay. (Alamar Blue is a resazurin reagent that responds to reducing activity.)
The subject of assay [2] is Leishmania donovani. The assay is described as follows: Antileishmanial activity against axenic amastigote stage of Leishmania donovani assessed as growth inhibition after 72 hrs by Alamar Blue assay.
For the next assay, the system named is Trypanosoma brucei. The assay is described as follows: Antitrypanosomal activity against trypamastigote stage of Trypanosoma brucei assessed as growth inhibition after 72 hrs by Alamar Blue assay.

One may read the IC50 as the concentration at which inhibition is half-maximal. The IC90 is the concentration needed for an effect of 90%. As to `C=C1CC[C@H]2[C@@](C)(CCC[C@]2(C)C(=O)NC2CCCCC2)[C@@H]1CCc1ccoc1`, the inhibition result with Leishmania donovani [1] is “inactive”. For the same compound, in the assay on Leishmania donovani [2], the IC50 was found to be 4.23 µg/mL (≈ 10.6 µM) and the IC90 amounted to 8.19 µg/mL (≈ 20.6 µM). For the same compound, in the assay with Trypanosoma brucei, the IC50 worked out at 3.58 µg/mL (≈ 9 µM) and the IC90 is 8.1 µg/mL (≈ 20.4 µM).

`C=C1CC[C@H]2[C@@](C)(CCC[C@]2(C)C(=O)O)[C@@H]1CCc1ccoc1`: the IC50 in the assay with Leishmania donovani [2] is 8.68 µg/mL (≈ 27.4 µM); with Trypanosoma brucei it was 3.87 µg/mL (≈ 12.2 µM). Also, the results for the IC90 with Leishmania donovani [2] and with Trypanosoma brucei were greater than 10 µg/mL and 8.12 µg/mL (≈ 25.7 µM), respectively.

As to `N=C(N)c1ccc(OCCCCCOc2ccc(C(=N)N)cc2)cc1` [PENTAMIDINE], in the assay with Leishmania donovani [2], the IC50 was 1.89 µg/mL (≈ 5.54 µM) and the IC90 was found to be 5.81 µg/mL (≈ 17.1 µM). Also, in the assay on Trypanosoma brucei, the IC50 worked out at 0.002 µg/mL (≈ 0.00587 µM) and the IC90 was determined as 0.003 µg/mL (≈ 0.00881 µM).

For the compound `C=C1CC[C@H]2[C@@](C)(CCC[C@]2(C)C(=O)NCCOCCO)[C@@H]1CCc1ccoc1`, the inhibition result in the assay with Leishmania donovani [1] was “inactive”. Further, in the assay on Leishmania donovani [2], the IC50 is greater than 10 µg/mL and the IC90 is greater than 10 µg/mL. Further, in the assay on Trypanosoma brucei, the IC50 was greater than 10 µg/mL and the IC90 is greater than 10 µg/mL.

Take `C=C1CC[C@H]2[C@@](C)(CCC[C@]2(C)C(=O)N(CC)CC)[C@@H]1CCc1ccoc1`: the inhibition entry with Leishmania donovani [1] was “inactive”. Besides, in the assay on Leishmania donovani [2], the IC50 was found to be 5.12 µg/mL (≈ 13.8 µM) and the IC90 was 8.75 µg/mL (≈ 23.5 µM). For the same compound, in the assay on Trypanosoma brucei, the IC50 was 5 µg/mL (≈ 13.5 µM) and the IC90 came to 8.82 µg/mL (≈ 23.7 µM).

With `C=C1CC[C@H]2[C@@](C)(CCC[C@]2(C)C(=O)N2CCN(C)CC2)[C@@H]1CCc1ccoc1`, in the assay with Leishmania donovani [1], the inhibition result was “inactive”. In addition, in the assay with Leishmania donovani [2], the concentration for half-maximal inhibition (IC50) is greater than 10 µg/mL and the IC90 is greater than 10 µg/mL. In addition, in the assay on Trypanosoma brucei, the IC50 came out at 6.85 µg/mL (≈ 17.2 µM) and the IC90 was greater than 10 µg/mL.

For the compound `C=C1CC[C@H]2[C@@](C)(CCC[C@]2(C)C(=O)NCC2CCCCC2)[C@@H]1CCc1ccoc1`, the inhibition entry with Leishmania donovani [1] is “inactive”. Further, in the assay on Leishmania donovani [2], the IC50 turned out to be 3.84 µg/mL (≈ 9.33 µM) and the IC90 turned out to be 7.75 µg/mL (≈ 18.8 µM). In addition, in the assay with Trypanosoma brucei, the IC50 came out at 5.75 µg/mL (≈ 14 µM) and the 90% effect concentration (IC90) stood at 8.52 µg/mL (≈ 20.7 µM).

For `C=C1CC[C@H]2[C@@](C)(CCC[C@]2(C)C(=O)NC2CC2)[C@@H]1CCc1ccoc1`, the inhibition entry in the assay with Leishmania donovani [1] is “inactive”. In the assay on Leishmania donovani [2], the IC50 is 8.21 µg/mL (≈ 23.1 µM) and the IC90 is greater than 10 µg/mL. For the same compound, in the assay with Trypanosoma brucei, the IC50 came out at 5.62 µg/mL (≈ 15.8 µM) and the IC90 turned out to be 8.96 µg/mL (≈ 25.2 µM).

`C[C@@]12CCC[C@](C)(C(=O)N3CCOCC3)[C@H]1CCC(O)(CO)[C@H]2CCc1ccoc1` (some centres not stated): the inhibition result with Leishmania donovani [1] is “inactive”. Also, the values for the IC50 in the assay with Leishmania donovani [2] and with Trypanosoma brucei were greater than 10 µg/mL and 6.25 µg/mL (≈ 14.9 µM), respectively. The IC90 in the assay on Leishmania donovani [2] and in the assay on Trypanosoma brucei was greater than 10 µg/mL in each case.

On to `C=C1CC[C@H]2[C@@](C)(CCC[C@]2(C)C(=O)NC(C)C)[C@@H]1CCc1ccoc1`, for which the inhibition result with Leishmania donovani [1] is “inactive”. In the assay on Leishmania donovani [2], the concentration for half-maximal inhibition (IC50) was 7.04 µg/mL (≈ 19.7 µM) and the IC90 was greater than 10 µg/mL. Further, in the assay with Trypanosoma brucei, the IC50 is 2.74 µg/mL (≈ 7.66 µM) and the IC90 came to 4.9 µg/mL (≈ 13.7 µM).

For the compound `C=C1CC[C@H]2[C@@](C)(CCC[C@]2(C)C(=O)NC2CCOCC2)[C@@H]1CCc1ccoc1`, the inhibition entry in the assay on Leishmania donovani [1] was “inactive”. In addition, in the assay on Leishmania donovani [2], the IC50 is greater than 10 µg/mL and the IC90 is greater than 10 µg/mL. Besides, in the assay with Trypanosoma brucei, the IC50 was found to be 9.88 µg/mL (≈ 24.7 µM) and the IC90 was greater than 10 µg/mL.

As to `C=C1CC[C@H]2[C@@](C)(CCC[C@]2(C)C(=O)NCCN(C)C)[C@@H]1CCc1ccoc1`, the inhibition result with Leishmania donovani [1] was “inactive”. In the assay with Leishmania donovani [2], the IC50 was greater than 10 µg/mL and the IC90 was greater than 10 µg/mL. Also, in the assay with Trypanosoma brucei, the IC50 was greater than 10 µg/mL and the IC90 is greater than 10 µg/mL.

On to `C=C1CC[C@H]2[C@@](C)(CCC[C@]2(C)C(=O)N2CCOCC2)[C@@H]1CCc1ccoc1`, for which, in the assay with Leishmania donovani [1], the inhibition result is “inactive”. Further, the IC50 in the assay on Leishmania donovani [2] was determined as 9.9 µg/mL (≈ 25.7 µM); with Trypanosoma brucei it was 4.62 µg/mL (≈ 12 µM). Also, the IC90 in the assay on Leishmania donovani [2] was greater than 10 µg/mL; in the assay with Trypanosoma brucei it was 8.3 µg/mL (≈ 21.5 µM).

With `C=C1CC[C@H]2[C@@](C)(CCC[C@]2(C)C(=O)NCCOC)[C@@H]1CCc1ccoc1`, the inhibition entry with Leishmania donovani [1] is “inactive”. Besides, in the assay with Leishmania donovani [2], the IC50 amounted to 6.73 µg/mL (≈ 18 µM) and the IC90 was greater than 10 µg/mL. In the assay on Trypanosoma brucei, the IC50 was found to be 2.58 µg/mL (≈ 6.91 µM) and the 90% effect concentration (IC90) was 4.71 µg/mL (≈ 12.6 µM).

For `C=C1CC[C@H]2[C@@](C)(CCC[C@]2(C)C(=O)NCCCC)[C@@H]1CCc1ccoc1`, the inhibition entry in the assay on Leishmania donovani [1] was “inactive”. Moreover, in the assay with Leishmania donovani [2], the IC50 was determined as 5.93 µg/mL (≈ 16 µM) and the IC90 worked out at 9.02 µg/mL (≈ 24.3 µM). In the assay with Trypanosoma brucei, the IC50 stood at 6.14 µg/mL (≈ 16.5 µM) and the IC90 was found to be 9.13 µg/mL (≈ 24.6 µM).

On to `COCCNC(=O)[C@@]1(C)CCC[C@@]2(C)[C@H](CCc3ccoc3)C(O)(CO)CC[C@@H]21` (some centres not stated), for which, in the assay on Leishmania donovani [1], the inhibition entry is “inactive”. Moreover, in the assay with Leishmania donovani [2], the IC50 is greater than 10 µg/mL and the IC90 was greater than 10 µg/mL. Also, in the assay on Trypanosoma brucei, the IC50 stood at 7.68 µg/mL (≈ 18.8 µM) and the IC90 is greater than 10 µg/mL.

For `C[C@@H]1[C@H](O)[C@@H](C)/C=C/C=C/C=C/C=C/C=C/C=C/C=C/[C@H](O[C@@H]2O[C@H](C)[C@@H](O)[C@H](N)[C@@H]2O)C[C@@H]2O[C@](O)(C[C@@H](O)C[C@@H](O)[C@H](O)CC[C@@H](O)C[C@@H](O)CC(=O)O[C@H]1C)C[C@H](O)[C@H]2C(=O)O` [AMPHOTERICIN B], in the assay on Leishmania donovani [2], the IC50 is 0.195 µg/mL (≈ 0.211 µM) and the IC90 is 0.301 µg/mL (≈ 0.326 µM). Also, in the assay with Trypanosoma brucei, the IC50 was found to be 4.52 µg/mL (≈ 4.89 µM) and the IC90 was 10.1 µg/mL (≈ 10.9 µM).

For the compound `C[C@@]12CCC[C@](C)(C(=O)NCC3CCCCC3)[C@H]1CCC(O)(CO)[C@H]2CCc1ccoc1` (some centres not stated), the inhibition entry with Leishmania donovani [1] was “inactive”. In the assay on Leishmania donovani [2], the IC50 is greater than 10 µg/mL and the IC90 was greater than 10 µg/mL. Also, in the assay on Trypanosoma brucei, the IC50 turned out to be 6.51 µg/mL (≈ 14.6 µM) and the IC90 was determined as 9.15 µg/mL (≈ 20.5 µM).
